Assay results taken from ChEMBL document CHEMBL1154013, “Brain-penetrating 2-aminobenzimidazole H(1)-antihistamines for the treatment of insomnia” (Bioorg Med Chem Lett, 2009).

Assays:
[1] = biological target: Histamine H1 receptor (Homo sapiens, UniProt P35367); experiment: Displacement of [3H]pyrilamine from human histamine H1 receptor expressed in CHO Flp-In cells by liquid scintillation assay; type: cell-based
[2] = biological target: Cytochrome P450 2D6 (Homo sapiens, UniProt P10635); experiment: Inhibition of CYP2D6; type: ADME
Sequence of Cytochrome P450 2D6 (P10635 whole entry): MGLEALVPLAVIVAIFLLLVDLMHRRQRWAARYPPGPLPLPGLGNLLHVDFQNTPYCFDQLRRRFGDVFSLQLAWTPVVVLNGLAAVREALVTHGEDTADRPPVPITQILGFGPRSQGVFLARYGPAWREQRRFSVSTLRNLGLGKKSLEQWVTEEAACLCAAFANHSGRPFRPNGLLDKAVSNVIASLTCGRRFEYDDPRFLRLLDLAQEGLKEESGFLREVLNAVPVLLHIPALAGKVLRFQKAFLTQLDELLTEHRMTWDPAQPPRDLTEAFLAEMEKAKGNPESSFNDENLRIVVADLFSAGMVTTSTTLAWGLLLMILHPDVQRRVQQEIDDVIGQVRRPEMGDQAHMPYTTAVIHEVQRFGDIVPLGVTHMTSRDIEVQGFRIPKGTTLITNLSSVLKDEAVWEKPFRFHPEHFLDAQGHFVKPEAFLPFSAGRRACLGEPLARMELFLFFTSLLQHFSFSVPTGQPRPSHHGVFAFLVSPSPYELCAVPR

[3] = biological target: T1, Voltage-gated inwardly rectifying potassium channel KCNH2 (Homo sapiens, UniProt Q12809); experiment: Displacement of [3H]dofetolide from human ERG channel expressed in HEK293 cells at 37 degC by liquid scintillation assay; type: cell-based
T1 sequence (Q12809 whole entry): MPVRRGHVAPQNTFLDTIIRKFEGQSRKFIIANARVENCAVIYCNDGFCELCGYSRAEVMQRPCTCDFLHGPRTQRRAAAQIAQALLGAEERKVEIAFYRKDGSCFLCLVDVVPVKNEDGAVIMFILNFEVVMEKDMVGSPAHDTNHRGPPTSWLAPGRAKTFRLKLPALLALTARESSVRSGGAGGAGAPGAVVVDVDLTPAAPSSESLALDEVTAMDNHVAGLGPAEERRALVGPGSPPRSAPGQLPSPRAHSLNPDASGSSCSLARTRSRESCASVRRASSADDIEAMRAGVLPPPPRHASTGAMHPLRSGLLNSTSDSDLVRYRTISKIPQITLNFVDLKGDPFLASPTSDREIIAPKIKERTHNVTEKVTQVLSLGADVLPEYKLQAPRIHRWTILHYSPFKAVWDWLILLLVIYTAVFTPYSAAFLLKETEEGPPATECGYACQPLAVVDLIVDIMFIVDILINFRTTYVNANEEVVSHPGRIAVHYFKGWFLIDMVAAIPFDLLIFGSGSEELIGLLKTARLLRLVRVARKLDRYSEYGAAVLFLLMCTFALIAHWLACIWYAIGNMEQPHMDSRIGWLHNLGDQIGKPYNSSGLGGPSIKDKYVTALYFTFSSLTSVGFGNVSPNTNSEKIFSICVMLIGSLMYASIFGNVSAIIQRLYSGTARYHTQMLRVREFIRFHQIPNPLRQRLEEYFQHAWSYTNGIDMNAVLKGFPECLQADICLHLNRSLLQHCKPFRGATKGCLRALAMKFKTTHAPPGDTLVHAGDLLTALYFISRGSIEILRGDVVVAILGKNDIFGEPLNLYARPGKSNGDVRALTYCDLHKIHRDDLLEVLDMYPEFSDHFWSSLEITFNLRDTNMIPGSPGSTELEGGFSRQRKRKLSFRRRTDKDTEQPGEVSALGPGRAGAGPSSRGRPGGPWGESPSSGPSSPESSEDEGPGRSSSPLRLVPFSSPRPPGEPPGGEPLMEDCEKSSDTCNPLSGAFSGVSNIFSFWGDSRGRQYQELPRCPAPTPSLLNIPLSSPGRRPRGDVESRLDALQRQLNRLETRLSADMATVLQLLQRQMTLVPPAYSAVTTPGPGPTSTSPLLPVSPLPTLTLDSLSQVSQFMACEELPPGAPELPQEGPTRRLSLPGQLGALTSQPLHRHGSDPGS

[4] = species on record: Homo sapiens; experiment: Selectivity for human muscarinic M1 receptor over human histamine H1 receptor
[5] = biological target: Cytochrome P450 3A4 (Homo sapiens, UniProt P08684); experiment: Inhibition of CYP3A4; type: ADME
Sequence of Cytochrome P450 3A4 (P08684 whole entry): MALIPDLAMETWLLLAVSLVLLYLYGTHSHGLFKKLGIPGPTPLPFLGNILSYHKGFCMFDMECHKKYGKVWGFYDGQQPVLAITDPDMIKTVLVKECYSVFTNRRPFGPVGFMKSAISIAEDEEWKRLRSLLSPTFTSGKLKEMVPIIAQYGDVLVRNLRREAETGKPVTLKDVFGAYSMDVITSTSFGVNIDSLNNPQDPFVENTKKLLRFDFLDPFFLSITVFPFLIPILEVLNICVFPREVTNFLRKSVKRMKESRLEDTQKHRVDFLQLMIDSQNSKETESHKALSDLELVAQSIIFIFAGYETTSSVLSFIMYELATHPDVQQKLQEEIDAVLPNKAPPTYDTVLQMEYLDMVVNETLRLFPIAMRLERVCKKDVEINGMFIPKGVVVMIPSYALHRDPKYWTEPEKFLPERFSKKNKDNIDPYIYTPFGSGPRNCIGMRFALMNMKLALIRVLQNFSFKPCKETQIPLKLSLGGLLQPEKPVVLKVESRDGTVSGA

[6] = tested on: Rattus norvegicus; experiment: Antihistamine activity in Wistar rat EEG/EMG model assessed as increase in time spent in non rapid eye movement sleep stage at 30 mg/kg, po administered during activity portion of diurnal cycle 6 hrs after lights-off measured in 4 hrs; type: functional
[7] = tested on: Rattus norvegicus; experiment: Antihistamine activity in Wistar rat EEG/EMG model assessed as non rapid eye movement sleep stage latency at 30 mg/kg, po administered during activity portion of diurnal cycle 6 hrs after lights-off measured in 4 hrs; type: functional
[8] = tested on: Rattus norvegicus; experiment: Antihistamine activity in Wistar rat EEG/EMG model assessed as rapid eye movement sleep stage at 30 mg/kg, po administered during activity portion of diurnal cycle 6 hrs after lights-off measured in 4 hrs; type: functional
[9] = tested on: Rattus norvegicus; experiment: Antihistamine activity in Wistar rat EEG/EMG model assessed as rapid eye movement sleep stage latency at 30 mg/kg, po administered during activity portion of diurnal cycle 6 hrs after lights-off measured in 4 hrs; type: functional
[10] = tested on: Rattus norvegicus; experiment: Antihistamine activity in Wistar rat EEG/EMG model assessed as longest 3 REM bouts at 30 mg/kg, po administered during activity portion of diurnal cycle 6 hrs after lights-off measured in 6 hrs; type: functional
[11] = biological target: T2, Muscarinic acetylcholine receptor M1 (Homo sapiens, UniProt P11229); experiment: Displacement of [3H]N-methyl Scopolamine from human muscarinic M1 receptor expressed in CHO Flp-In cells by liquid scintillation assay; type: cell-based
T2 sequence (P11229 whole entry): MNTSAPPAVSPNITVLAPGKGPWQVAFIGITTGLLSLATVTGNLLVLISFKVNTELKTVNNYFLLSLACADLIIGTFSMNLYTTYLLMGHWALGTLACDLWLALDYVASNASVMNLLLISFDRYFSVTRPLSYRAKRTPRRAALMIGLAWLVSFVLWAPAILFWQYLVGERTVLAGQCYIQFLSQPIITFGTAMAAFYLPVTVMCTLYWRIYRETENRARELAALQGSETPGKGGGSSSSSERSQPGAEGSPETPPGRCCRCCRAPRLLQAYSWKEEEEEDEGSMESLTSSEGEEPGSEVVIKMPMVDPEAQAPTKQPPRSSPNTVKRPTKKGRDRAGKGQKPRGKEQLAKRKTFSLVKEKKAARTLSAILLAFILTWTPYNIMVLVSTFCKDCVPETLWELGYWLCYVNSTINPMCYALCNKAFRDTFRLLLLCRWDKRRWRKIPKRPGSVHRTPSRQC

[12] = tested on: Brain; experiment: Biodistribution in rat brain assessed per gram of tissue at 1 mg/kg, iv after 2 hrs; type: ADME, organism-based; set-up: dose 1 mg/kg, route intravenous; conditions: in vivo
[13] = tested on: Plasma; experiment: Drug level in rat plasma assessed per gram of tissue at 1 mg/kg, iv after 2 hrs; type: ADME, organism-based; set-up: dose 1 mg/kg, route intravenous; conditions: in vivo
[14] = Ratio of drug level in brain to plasma in rat at 1 mg/kg, iv after 2 hrs; type: ADME, organism-based; set-up: dose 1 mg/kg, route intravenous
[15] = tested on: Brain; experiment: Biodistribution in rat brain at 1 mg/kg, iv after 2 hrs in presence of triprolidine; type: ADME, organism-based; set-up: dose 1 mg/kg, route intravenous; conditions: in vivo
[16] = Ratio of drug level in brain to plasma in rat at 30 mg/kg, po after 4 hrs; type: ADME, organism-based; set-up: dose 30 mg/kg, route oral
[17] = biological target: T1, Voltage-gated inwardly rectifying potassium channel KCNH2; experiment: Inhibition of human ERG channel expressed in HEK293 cells by patch clamp assay; type: cell-based
[18] = Apparent permeability across human Caco-2 cell membrane; type: ADME, cell-based
[19] = tested on: Caco-2; experiment: Ratio of permeability from apical to basolateral side to basolateral to apical side in human Caco-2 cells; type: ADME, cell-based
[20] = tested on: Rattus norvegicus; experiment: Antihistamine activity in Wistar rat EEG/EMG model assessed as longest 3 NREM bouts at 30 mg/kg, po administered during activity portion of diurnal cycle 6 hrs after lights-off measured in 6 hrs; type: functional
[21] = Ratio of drug level in brain to plasma in rat at 10 mg/kg, po after 4 hrs; type: ADME, organism-based; set-up: dose 10 mg/kg, route oral
[22] = Clearance in Sprague-Dawley rat at 10 mg/kg, po; type: ADME, organism-based; set-up: dose 10 mg/kg, route oral; conditions: in vivo
[23] = Bioavailability in Sprague-Dawley rat at 5 mg/kg, iv; type: ADME, organism-based; conditions: in vivo, read-out: Drug uptake
[24] = Drug level in Sprague-Dawley rat plasma at 10 mg/kg, po after 4 hrs; conditions: read-out: Drug uptake
[25] = tested on: Brain; experiment: Biodistribution in Sprague-Dawley rat brain at 10 mg/kg, po assessed per gram of tissue after 4 hrs; conditions: in vivo

Sequence of Histamine H1 receptor (P35367 whole entry): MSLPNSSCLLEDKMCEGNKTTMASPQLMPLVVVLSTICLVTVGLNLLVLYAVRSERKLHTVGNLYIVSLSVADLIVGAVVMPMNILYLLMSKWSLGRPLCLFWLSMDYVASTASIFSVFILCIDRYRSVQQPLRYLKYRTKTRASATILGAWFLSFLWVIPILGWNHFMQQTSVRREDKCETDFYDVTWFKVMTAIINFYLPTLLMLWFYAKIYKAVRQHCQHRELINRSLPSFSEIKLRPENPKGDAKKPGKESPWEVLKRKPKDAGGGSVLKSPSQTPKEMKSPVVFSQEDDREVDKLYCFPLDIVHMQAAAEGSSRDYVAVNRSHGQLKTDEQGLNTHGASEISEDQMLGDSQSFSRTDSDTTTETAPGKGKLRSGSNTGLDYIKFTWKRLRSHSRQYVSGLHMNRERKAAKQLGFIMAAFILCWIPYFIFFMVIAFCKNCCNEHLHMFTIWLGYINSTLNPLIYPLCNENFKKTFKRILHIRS

Structure (SMILES) | Ki ([1]; read-out: Ki) [nM] | IC50 ([2]; read-out: IC50) [µM] | Ki [3] [nM] | Selectivity ratio [4] | IC50 [5] [µM] | further results
Fc1ccc(Cn2c(N3CCC(n4ccnc4)CC3)nc3ccccc32)cc1 | 1.3 | 1.12 | 137 | > 1000 | 0.072 | –
Fc1ccc(Cn2c(N3CCC(NCC4CCOCC4)CC3)nc3ccccc32)cc1 | 4.5 | 12.1 | 426 | > 1000 | > 5 | –
Cc1ccc(-c2nc3ccc(C)cn3c2CC(=O)N(C)C)cc1 [ZOLPIDEM] | – | – | – | – | – | Activity [6]: 48.3%; Time [7]: 7 min; Activity [8]: 0.4%; Time [9]: 186 min; Time [10]: 1.4 min
CN(c1ncccn1)C1CCN(c2nc3ccccc3n2Cc2ccc(F)cc2)CC1 | 75.2 | – | – | – | – | Ki ([11]; read-out: Ki): > 10 µM; IC50 [2]: 1.04 µM
Cc1ccc(/C(=C\CN2CCCC2)c2ccccn2)cc1 [TRIPROLIDINE] | – | – | – | – | – | Drug uptake [12]: 55.6 ng/g; Drug uptake [13]: 7.1 ng/g; Kp at 2 h [14]: 4.5; Drug uptake [15]: 55.6 ng
Fc1ccc(Cn2c(N3CCC(n4cccc4)CC3)nc3ccccc32)cc1 | 59.3 | 1.53 | 157 | > 1000 | > 5 | –
CN(C1CCOCC1)C1CCN(c2nc3ccccc3n2Cc2ccc(F)cc2)CC1 | – | 6.36 | – | – | – | Ki [1]: 3.3 nM; Ki [11]: 14.7 µM; Drug uptake [12]: 55 ng/g; Drug uptake [13]: 18.1 ng/g; Kp at 2 h [14]: 3.5; Drug uptake [15]: 39.4 ng
COc1ccc(Cn2c(N3CCC(NCC4CCOCC4)CC3)nc3ccccc32)cc1 | 14.1 | 16.3 | 1460 | > 1000 | > 5 | –
COCCN(C)C1CCN(c2nc3ccccc3n2Cc2ccc(F)cc2)CC1 | 2.2 | 4.44 | – | – | > 5 | –
CN(CCO)C1CCN(c2nc3ccccc3n2Cc2ccc(F)cc2)CC1 | 3.2 | 35.1 | 116 | > 1000 | > 5 | –
CN(CC1CCCCC1)C1CCN(c2nc3ccccc3n2Cc2ccc(F)cc2)CC1 | – | 0.36 | – | – | – | Ki [1]: 4.4 nM; Ki [11]: 3.86 µM
COc1ccc(Cn2c(N3CCC(N(C)CC4CCOCC4)CC3)nc3ccccc32)cc1 | 14.1 | 8.18 | 102 | > 1000 | > 5 | –
CN(c1ccccc1)C1CCN(c2nc3ccccc3n2Cc2ccc(F)cc2)CC1 | – | > 20 | – | – | – | Ki [1]: 80.5 nM; Ki [11]: > 10 µM
Cc1ccc(Cn2c(N3CCC(N(C)C)CC3)nc3ccccc32)cc1 | 1.5 | 7.21 | 73 | > 1000 | > 5 | –
CN(C1CCCCC1)C1CCN(c2nc3ccccc3n2Cc2ccc(F)cc2)CC1 | 2.8 | – | – | – | – | Ki ([11]; read-out: Ki): 2.74 µM; IC50 [2]: 2.05 µM
Cc1cnn(C2CCN(c3nc4ccccc4n3Cc3ccc(F)cc3)CC2)c1 | – | – | – | – | – | Kp at 4 h [16]: 2.3
COc1ccc(Cn2c(N3CCC(N(C)C)CC3)nc3ccccc32)cc1 | 2.4 | 6.07 | – | – | > 5 | –
CN(CCc1ccccc1)C1CCN(c2nc3ccccc3n2Cc2ccc(F)cc2)CC1 | 2.4 | – | – | – | – | Ki ([11]; read-out: Ki): 0.089 µM; IC50 [2]: 0.502 µM
CN(c1nccc(=O)[nH]1)C1CCN(c2nc3ccccc3n2Cc2ccc(F)cc2)CC1 [MIZOLASTINE] | 2.7 | – | 7260 | – | – | Ki ([11]; read-out: Ki): > 10 µM; IC50 [2]: > 20 µM; IC50 [17]: 441 nM; Drug uptake [12]: 0 ng/g; Drug uptake [13]: 6.3 ng/g; Drug uptake [15]: 55.6 ng
CN(C)CCN(C)C1CCN(c2nc3ccccc3n2Cc2ccc(F)cc2)CC1 | 2.9 | 6.13 | 776 | > 1000 | > 5 | –
COc1ccc(Cn2c(N3CCC(n4cc(C)cn4)CC3)nc3ccccc32)cc1 | 7.1 | 7.32 | > 5000 | > 1000 | > 5 | –
CNC1CCN(c2nc3ccccc3n2Cc2ccc(F)cc2)CC1 | 2.4 | – | – | – | – | Ki ([11]; read-out: Ki): 0.988 µM; IC50 [2]: 6.66 µM
CN(C)C1CCN(c2nc3ccccc3n2Cc2ccc(F)cc2)CC1 | 1.8 | 12.8 | 57 | > 1000 | > 5 | Drug uptake [12]: 50 ng/g; Drug uptake [13]: 10.9 ng/g; Kp at 2 h [14]: 4.6; Drug uptake [15]: 55.3 ng
O=C1CCCCN1C1CCN(c2nc3ccccc3n2Cc2ccc(F)cc2)CC1 | 6.6 | 4.35 | > 7500 | > 1000 | > 5 | Papp [18]: 12.4 ×10⁻⁶ cm/s; Ratio [19]: 0.6
CN(CC1CCOCC1)C1CCN(c2nc3ccccc3n2Cc2ccc(F)cc2)CC1 | – | 11 | – | – | > 5 | Activity [6]: 47.2%; Time [7]: 21 min; Activity [8]: 2.6%; Time [9]: 110 min; Time [20]: 11 min; Time [10]: 0.5 min; Kp at 4 h [21]: 10; Drug uptake [12]: 104 ng/g; Drug uptake [13]: 19.2 ng/g; Kp at 2 h [14]: 6.3; Drug uptake [15]: 39.4 ng; CL/F [22]: 134 mL/min/kg; bioavailability [23]: 2%; concentration at 4 h [24]: 9 ng/mL; Drug uptake [25]: 94 ng/g
Fc1ccc(Cn2c(N3CCC(n4cccn4)CC3)nc3ccccc32)cc1 | 18.3 | 1.48 | – | – | > 5 | –
CN(Cc1ccccc1)C1CCN(c2nc3ccccc3n2Cc2ccc(F)cc2)CC1 | 3.6 | – | – | – | – | Ki ([11]; read-out: Ki): 3.58 µM; IC50 [2]: 0.805 µM
